{
  "source": "patent US12102617B2",
  "about": "“Antimicrobial compositions containing a synergistic combination of activated creatinine and an imidazole antifungal agent” (Board of Regents of the University of Nebraska, priority 2016, dated 2024)",
  "key": {"[1]": {"system": "Staphylococcus aureus (Gram positive; laboratory strain 29213)", "assay": "MIC determination, two-fold dilutions in 96-well plates (Example 2)", "type": "cell-based", "conditions": "for antibacterial efficacy against S. aureas (Example 2, FIG. 2): comparative photographs; for MIC: S. aureus, single agent alone, 24 hours at 37° C.", "protocol": "(§1) The antibacterial activity of the clotrimazole/activated creatinine solutions prepared as described in Example 1 was evaluated with respect to Staphylococcus aureus (Gram positive; laboratory strain 29213), E. coli (Gram negative; laboratory strain 35150), and a multiple drug resistant strain of Enterococcus faecalis (Gram positive). The S. aureus and E. coli were purchased from the American Type Culture Collection, and the E. faecalis was a local veterinary clinic isolate. The minimum inhibitory concentration (“MIC”) for each solution was determined against each of the three bacteria after incubation for 24 hours at 37° C. using two-fold dilutions and flat-bottom 96-well plates."}, "[2]": {"system": "multiple drug resistant strain of Enterococcus faecalis (Gram positive)", "assay": "MIC determination, two-fold dilutions in 96-well plates (Example 2)", "type": "cell-based", "conditions": "E. faecalis (multiple drug resistant), single agent alone, 24 hours at 37° C.", "protocol": "as §1"}, "[3]": {"system": "E. coli (Gram negative; laboratory strain 35150)", "assay": "microbe, parasite or virus in culture", "type": "cell-based", "conditions": "single agent alone, 24 hours at 37° C.", "protocol": "as §1"}, "[4]": {"system": "Candida albicans yeast (ATCC1023)", "assay": "Antifungal MIC evaluation (Example 3)", "type": "cell-based", "conditions": "C. albicans yeast, single agent alone, 24 hours at 37° C.", "protocol": "(§2) The MIC for each solution was determined against the fungi after incubation for 24 hours at 37° C. using two-fold dilutions and flat-bottom 96-well plates."}, "[5]": {"system": "Saccharomyces spp. yeast (baker's yeast)", "assay": "Antifungal MIC evaluation (Example 3)", "type": "cell-based", "conditions": "single agent alone, 24 hours at 37° C.", "protocol": "as §2"}, "[6]": {"system": "Penicillium spp. 1", "assay": "Comparative antifungal testing on LB agar plate wells, mold fungi (Example 4)", "type": "cell-based", "conditions": "0.1% (w/v) solutions in wells of LB agar plate, after 48 hours", "protocol": "(§3) Two species of penicillium, Penicillium spp. 1 and Penicillium spp. 2, were isolated from contaminates that grew on laboratory plates and were grown in LB broth, shaking for three days. One hundred microliters of the fungal broth were added to an LB agar plate and evenly spread on the surface. Test samples containing the following aqueous solutions were prepared: • 0.1% (w/v) clotrimazole (3.4 mM); • 0.1% (w/v) clotrimazole in 200 mM creatinine ethyl ester hydrochloride (“CEE”) (3.4 mM in clotrimazole; 1.7 mol % clotrimazole in the clotrimazole-creatinine mixture); • 0.1% (w/v) ketoconazole (5.3 mM); • 0.1% (w/v) fluconazole (30 mM). […] (2009) Biochem. Biophys. Res. Comm. 388(2):252-255."}, "[7]": {"system": "Penicillium spp. 2", "assay": "Comparative antifungal testing on LB agar plate wells, mold fungi (Example 4)", "type": "cell-based", "conditions": "0.1% (w/v) solutions in wells of LB agar plate, after 48 hours", "protocol": "as §3"}, "[8]": {"system": "gram negative and gram positive bacteria", "conditions": "both gram negative and gram positive bacteria, including antibiotic resistant organisms; cited from earlier work"}},
  "note": "Counter-ions that a name gives are not always drawn. Like-named read-outs stand apart in the source and are kept apart here.",
  "data": [
    {"smiles": "Clc1ccccc1C(c1ccccc1)(c1ccccc1)n1ccnc1", "note": "[Clotrimazole, clotrimazole]", "values": [
      {"measurement": "antibacterial efficacy against S. aureas (Example 2, FIG. 2)", "setting": "[1]", "result": "ineffective"},
      {"measurement": "MIC", "setting": "[1]", "result": "no impact on bacterial growth"},
      {"measurement": "MIC", "setting": "[2]", "result": "no impact on bacterial growth"},
      {"measurement": "MIC", "setting": "[3]", "result": "no impact on bacterial growth"},
      {"measurement": "MIC", "setting": "[4]; Candida albicans, ATCC1023, read-out: MIC", "result": 6, "unit": "mg/mL"},
      {"measurement": "MIC", "setting": "[5]; read-out: MIC", "result": 7.5, "unit": "mg/mL"},
      {"measurement": "inhibition of fungal growth", "setting": "[6]", "result": "does not exhibit antifungal activity"},
      {"measurement": "inhibition of fungal growth", "setting": "[6]; listed as CLO", "result": "do not"},
      {"measurement": "inhibition of fungal growth", "setting": "[7]", "result": "does not exhibit antifungal activity"},
      {"measurement": "inhibition of fungal growth", "setting": "[7]; listed as CLO", "result": "do not"}
    ]},
    {"smiles": "CN1CC(=O)N=C1N", "note": "[activated creatinine, creatinine hydrochloride]", "values": [
      {"measurement": "antibacterial efficacy against S. aureas (Example 2, FIG. 2)", "setting": "[1]", "result": "ineffective"},
      {"measurement": "MIC", "setting": "[1]; Staphylococcus aureus, read-out: MIC", "result": 10.9, "unit": "mg/mL"},
      {"measurement": "MIC", "setting": "[2]; Enterococcus faecalis, read-out: MIC", "result": 21.8, "unit": "mg/mL"},
      {"measurement": "MIC", "setting": "[3]; Escherichia coli, read-out: MIC", "result": 21.9, "unit": "mg/mL"},
      {"measurement": "MIC", "setting": "[4]", "result": "no impact on fungal growth"},
      {"measurement": "MIC", "setting": "[5]", "result": "no impact on fungal growth"},
      {"measurement": "inhibitory activity against bacteria", "setting": "[8]", "result": "broad spectrum inhibitory activity"}
    ]},
    {"smiles": "OC(Cn1cncn1)(Cn1cncn1)c1ccc(F)cc1F", "note": "[fluconazole]", "values": [
      {"measurement": "inhibition of fungal growth", "setting": "[6]", "result": "do not"},
      {"measurement": "inhibition of fungal growth", "setting": "[7]", "result": "do not"}
    ]},
    {"smiles": "CC(=O)N1CCN(c2ccc(OCC3COC(Cn4ccnc4)(c4ccc(Cl)cc4Cl)O3)cc2)CC1", "note": "(stereo not drawn) [ketoconazole]", "values": [
      {"measurement": "inhibition of fungal growth", "setting": "[6]", "result": "do not"},
      {"measurement": "inhibition of fungal growth", "setting": "[7]", "result": "do not"}
    ]}
  ]
}
